Data taken from the supplement of paper PMC11781733.

Tests used:
Settings in all cases: exposure time: 15 min to 3 h acute
Dugesia japonica [1] = experiment: resting fraction in dark vs vehicle (difference in fraction x100 vs vehicle); higher = higher incidence or increase relative to vehicle control
Experimental: (§1)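 Adult asexual Dugesia japonica planarians (1 per well, 48-well plate, n=24 over technical triplicates) were exposed acutely (15 min to 3 h) to each compound (0.5% DMSO or water vehicle) and screened on a robotic platform for crawl-out, stickiness, body shape, phototaxis, noxious-heat scrunching and locomotion endpoints. Binary endpoints are incidence rate x100 normalised to in-plate vehicle controls. Continuous endpoints are the median response normalised to the plate vehicle median, as % change or difference. Negative incidences after vehicle subtraction were set to 0.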

Dugesia japonica [2] = experiment: loss of heat-induced scrunching incidence (% planarians (vehicle-normalised)); higher = higher incidence or increase relative to vehicle control
Experimental: as §1

Dugesia japonica [3] = experiment: any abnormal body shape incidence (% planarians (vehicle-normalised)); higher = higher incidence or increase relative to vehicle control
Experimental: as §1

Dugesia japonica [4] = experiment: total locomotor bursts minus vehicle (bursts difference vs vehicle); higher = higher incidence or increase relative to vehicle control
Experimental: as §1

Dugesia japonica [5] = experiment: speed second 30 s blue light vs vehicle (% change vs vehicle); higher = higher incidence or increase relative to vehicle control
Experimental: as §1

Dugesia japonica [6] = experiment: speed first 30 s blue light vs vehicle (% change vs vehicle); higher = higher incidence or increase relative to vehicle control
Experimental: as §1

Dugesia japonica [7] = experiment: resting fraction in blue light vs vehicle (difference in fraction x100 vs vehicle); higher = higher incidence or increase relative to vehicle control
Experimental: as §1

Dugesia japonica [8] = experiment: corkscrew incidence (% planarians (vehicle-normalised)); higher = higher incidence or increase relative to vehicle control
Experimental: as §1

Dugesia japonica [9] = experiment: speed in dark vs vehicle (% change vs vehicle); higher = higher incidence or increase relative to vehicle control
Experimental: as §1

Dugesia japonica [10] = experiment: anxiety (time in outer well region) vs vehicle (% change vs vehicle); higher = higher incidence or increase relative to vehicle control
Experimental: as §1

Dugesia japonica [11] = experiment: crawl-out incidence (% planarians); higher = higher incidence or increase relative to vehicle control
Experimental: as §1, with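 “x100.” for “x100 normalised to in-plate vehicle controls.”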

Dugesia japonica [12] = experiment: stickiness incidence (% planarians (vehicle-normalised)); higher = higher incidence or increase relative to vehicle control
Experimental: as §1

Dugesia japonica [13] = experiment: hyperkinesis incidence (% planarians (vehicle-normalised)); higher = higher incidence or increase relative to vehicle control
Experimental: as §1

Dugesia japonica [14] = experiment: loss of phototaxis incidence (% planarians (vehicle-normalised)); higher = higher incidence or increase relative to vehicle control
Experimental: as §1

Dugesia japonica [15] = experiment: contracted body shape incidence (% planarians (vehicle-normalised)); higher = higher incidence or increase relative to vehicle control
Experimental: as §1

Dugesia japonica [16] = experiment: noxious heat displacement strength vs vehicle (% change vs vehicle); higher = higher incidence or increase relative to vehicle control
Experimental: as §1

Dugesia japonica [17] = experiment: pharynx extrusion incidence (% planarians (vehicle-normalised)); higher = higher incidence or increase relative to vehicle control
Experimental: as §1

Dugesia japonica [18] = experiment: C-shape incidence (% planarians (vehicle-normalised)); higher = higher incidence or increase relative to vehicle control
Experimental: as §1

SMILES | resting fraction in dark (Dugesia japonica [1]) | loss of heat-induced scrunching incidence (Dugesia japonica [2]) | any abnormal body shape incidence (Dugesia japonica [3]) | total locomotor bursts minus vehicle (Dugesia japonica [4]) | speed second 30 s blue light (Dugesia japonica [5]) | speed first 30 s blue light (Dugesia japonica [6]) | resting fraction in blue light (Dugesia japonica [7]) | corkscrew incidence (Dugesia japonica [8]) | speed in dark (Dugesia japonica [9]) | anxiety (Dugesia japonica [10]) | crawl-out incidence (Dugesia japonica [11]) | stickiness incidence (Dugesia japonica [12]) | hyperkinesis incidence (Dugesia japonica [13]) | loss of phototaxis incidence (Dugesia japonica [14]) | contracted body shape incidence (Dugesia japonica [15]) | noxious heat displacement strength (Dugesia japonica [16]) | pharynx extrusion incidence (Dugesia japonica [17]) | C-shape incidence (Dugesia japonica [18])
CN1CCN(C2=Nc3cc(Cl)ccc3Nc3ccccc32)CC1 [clozapine] (31.6 µM) | 77.6 | 66.7 | 87.5 | -3 | -91.3 | -93.4 | 75.8 | 29.2 | -76.4 | -27.4 | 0 | ≤ 0 | 50 | 54.2 | 4.17 | -34.2 | 0 | 29.2
CN1CCN(C2=Nc3cc(Cl)ccc3Nc3ccccc32)CC1 [clozapine] (100 µM) | 77.6 | 79.2 | 81 | -4.5 | -96.2 | -96.9 | 87.8 | 9.52 | -79.5 | -11.2 | 0 | ≤ 0 | 23.8 | 62.5 | 28.6 | -29.6 | 0 | 57.1
CN1C(=O)CN=C(c2ccccc2)c2cc(Cl)ccc21 [diazepam] (3.16 µM) | -5.99 | 29.2 | 0 | -3 | -4.64 | 21.1 | -0.17 | 0 | 16.7 | -3.35 | 0 | ≤ 0 | 0 | 41.7 | 0 | -6.66 | 0 | 0
CN1C(=O)CN=C(c2ccccc2)c2cc(Cl)ccc21 [diazepam] (10 µM) | -5.91 | 12.5 | 0 | -1 | -16.1 | 0.43 | 0.83 | 0 | 15.9 | 0.94 | 0 | 21.7 | 0 | 50 | 0 | -17.4 | 0 | 0
CN1C(=O)CN=C(c2ccccc2)c2cc(Cl)ccc21 [diazepam] (31.6 µM) | 56.8 | 16.7 | 41.7 | 6.5 | -63 | -43.1 | 17.2 | 4.17 | -43.7 | -8.02 | 0 | 16.7 | 8.33 | 8.33 | 8.33 | -21.6 | 25 | 25
CN1C(=O)CN=C(c2ccccc2)c2cc(Cl)ccc21 [diazepam] (100 µM) | 48.6 | 37.5 | 100 | 55 | -87.6 | -84.2 | 50.2 | 20.8 | -72.2 | -36.9 | 0 | ≤ 0 | 16.7 | 29.2 | 12.5 | -45.6 | 37.5 | 62.5
O=C(CCCN1CC=C(n2c(=O)[nH]c3ccccc32)CC1)c1ccc(F)cc1 [droperidol] (3.16 µM) | 62.6 | 66.7 | 50 | 18.8 | -89.6 | -90.1 | 66.1 | 8.33 | -77.5 | -4.16 | 0 | 8.33 | 37.5 | 45.8 | 16.7 | -42.7 | 0 | 12.5
